According to patent publication US20100273722A1, “MODIFIED MINIATURE PROTEINS” (Yale University, priority 2007, published 2010):
No end group written: not given here.

What was measured:
[1] = target: c-Src SH3 domain-GST fusion protein (Gallus gallus, UniProt P00523); assay: Fluorescence polarization direct binding assay, c-Src SH3; parameters: species or system chicken
Method: (§1) Polarization was measured by excitation with vertically polarized light at 485 nm and the fluorescence emission detected at 530 nm in both the vertical and horizontal directions. An average of five measurements were recorded for each well. Samples were equilibrated at room temperature for 25 min before analysis, a time sufficient for the binding reactions to reach equilibrium. The polarization data were fit using Kaleidagraph v3.6 software to Eq. 5, which is derived from first principles without assumptions. […] In this equation, Pobs is the observed polarization value at any given concentration of target protein (GST•SH3 domain). Pmin is the polarization of peptide^Flu at 50 nM in the absence of target protein. Pmax is the maximum polarization of peptide^Flu at saturation with target protein. Kd is the equilibrium dissociation constant. […] Free fits are shown. Kd values were estimated as described.

[2] = target: Fyn SH3 domain-GST fusion protein (Homo sapiens, UniProt P06241); assay: Fluorescence polarization direct binding assay, Fyn SH3
Chain of Fyn SH3 domain-GST fusion protein (P06241 81-142): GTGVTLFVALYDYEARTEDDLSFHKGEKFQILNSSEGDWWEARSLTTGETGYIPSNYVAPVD
Method: (§2) Polarization was measured by excitation with vertically polarized light at 485 nm and the fluorescence emission detected at 530 nm in both the vertical and horizontal directions. An average of five measurements were recorded for each well. Samples were equilibrated at room temperature for 25 min before analysis, a time sufficient for the binding reactions to reach equilibrium. The polarization data were fit using Kaleidagraph v3.6 software to Eq. 5, which is derived from first principles without assumptions. […] In this equation, Pobs is the observed polarization value at any given concentration of target protein (GST•SH3 domain). Pmin is the polarization of peptide^Flu at 50 nM in the absence of target protein. Pmax is the maximum polarization of peptide^Flu at saturation with target protein. Kd is the equilibrium dissociation constant. […] In these cases a lower limit Kd was estimated by setting Pmax equal to the observed polarization at the highest target protein concentration tested, which was often limited by solubility. […] Free fits are shown. Kd values were estimated as described. […] In several cases, the plots of polarization versus [SH3 domain] began to increase at high [SH3 domain] (>50 micromolar), perhaps because of a second binding event. In these cases (indicated by an asterisk (*) in Table 5), data above 50 micromolar target protein was excluded during the curve fits.

[3] = target: Hck SH3 domain-GST fusion protein (Homo sapiens, UniProt P08631); assay: Fluorescence polarization direct binding assay, Hck SH3
Chain of Hck SH3 domain-GST fusion protein (P08631 77-137): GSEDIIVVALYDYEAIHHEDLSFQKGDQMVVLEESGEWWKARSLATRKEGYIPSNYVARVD
Method: as §1

[4] = target: Lyn SH3 domain-GST fusion protein (Homo sapiens, UniProt P07948); assay: Fluorescence polarization direct binding assay, Lyn SH3
Chain of Lyn SH3 domain-GST fusion protein (P07948 62-122): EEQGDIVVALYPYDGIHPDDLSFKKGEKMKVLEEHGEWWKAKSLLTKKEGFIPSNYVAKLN
Method: as §2

[5] = target: Lck SH3 domain-GST fusion protein (Homo sapiens, UniProt P06239); assay: Fluorescence polarization direct binding assay, Lck SH3
Chain of Lck SH3 domain-GST fusion protein (P06239 62-128): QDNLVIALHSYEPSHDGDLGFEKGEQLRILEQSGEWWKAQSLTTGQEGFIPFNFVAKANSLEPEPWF
Method: as §2

c-Src SH3^P133L = c-Src SH3^P133L (Gallus gallus, UniProt P00523, P133L); assay: Fluorescence polarization direct binding assay, c-Src SH3^P133L; parameters: species or system chicken
Method: as §1

[6] = Temperature-dependent sedimentation equilibrium of aPP^Y7AP13SV14P, monomer-dimer-tetramer fit; type: physicochemical; settings: for % monomer: at 30 micromolar total peptide concentration; for ln KA (m): m fixed to 4 (tetramer), PBS
Method: aPP^Y7AP13SV14P samples were prepared in Dulbecco's PBS buffer (as described above) at concentrations of 45, 90, and 180 micromolar. Sedimentation equilibrium experiments were performed as described above and monitored at 280 nm. Samples were centrifuged to equilibrium at three speeds (42,000, 50,000, and 60,000 rpm) at 5, 10, 15, 20, 25, and 30° C. The rotor containing the samples was agitated manually between temperature runs to redistribute the sample along the length of the cell and checked by an initial scan.
The sedimentation data obtained for aPP^Y7AP13SV14P at each temperature was globally fit to Eq. 2 as described above. […] Therefore, the data from within each temperature set was then globally fit to a monomer-n-mer-m-mer model. Based on the self-association trends of the other aPP variants, in which the folded peptides best fit to a monomer-dimer model and the unfolded peptides fit to a monomer-tetramer model, the values for n and m were fixed to 2 and 4 respectively. Data fit with these parameters and the resulting residuals are presented in FIG. 5 and a summary of the fitted parameter results are given in Table 3. […] Samples were prepared in PBS buffer (90 micromolar) and centrifuged to equilibrium at speeds of 42,000 (51), 50,000 (52), and 60,000 (53) rpm.

[7] = Circular dichroism (wavelength- and temperature-dependent) of aPP variants, Example 1; type: physicochemical; settings: 30 micromolar
Method: The CD spectra of each peptide (30 micromolar) were acquired in Tris buffer (25 mM Tris base, 50 mM NaCl, (pH 8.0)) at 25° C. in a 2 mm cell. Samples were scanned between 200 and 260 nm, with signal sampling every 0.5 nm, and three successive scans were averaged. Molar residue ellipticity values were calculated from the equation MRE=(Θsample−Θbuffer)/(L×c×n×1000), where Θ is the observed signal in millidegrees, L is the length of the cuvette in cm, c is the concentration of peptide in dmol cm^−3 and n is the number of amino acids in the molecule.
Temperature-dependent CD spectra of aPP^Y7AP13SV14P (30 micromolar) were acquired in Dulbecco's PBS (1 mM KH2PO4, 155 mM NaCl, 3 mM Na2HPO4, (pH 7.4)) in a 2 mm cell. The signal at 222 nm (MRE222) was monitored between 1° C. and 80° C. using the variable temperature module provided with the instrument. Data were collected with a 0.5° C. data pitch, 5 s delay time, 20° C./hour temperature slope, 4 s response, and 1 nm bandwidth. CD spectra were obtained as the temperature was raised and when the temperature was lowered to establish the reversibility of the folding transition. Additionally, a full wavelength scan was obtained before and after the thermal melt; an overlay of the two spectra is shown in FIG. 3A. […] Mean residue ellipticity values for the temperature dependent CD spectrum were calculated from the equation MRE=Θ222 nm/(L×c×n×1000), where Θ is observed signal at 222 nm (mdeg), L is the length of, the cuvette (cm), c is the concentration of peptide (dmol/cm^3) and n is the number of amino acids in the molecule. The first derivatives of the temperature-dependent CD spectra are shown in FIG. 3B, which is a plot of δMRE222/δT (units of deg cm^2 dmol^−1 K^−1). The Tm value reported in the main text corresponds to the temperature at which ∂MRE222/∂T is a maximum.

[8] = Sedimentation equilibrium analytical ultracentrifugation of aPP variants, monomer-n-mer fit (self-association); type: physicochemical
Method: Analytical ultracentrifugation experiments were performed using peptide solutions prepared in Tris.Cl buffer (25 mM Tris base, 50 mM NaCl, (pH 8.0)) at the appropriate concentrations (5 micromolar to 200 micromolar). Samples were then centrifuged to equilibrium at 25° C. at 42,000, 50,000, and 60,000 rpm. Data were collected with a 0.001 cm step size and successive scans were initiated at 2 h intervals. Samples were judged to have reached equilibrium when the radial concentration gradient remained unchanged over three successive scans using the Match module of Heteroanalysis software v1.1.19. The solvent density (ρ, rho) and partial specific volume ( ν, nu) were calculated using the Sedimentation Interpretation Program “Sednterp” software v1.08.
The data for each peptide (multiple concentrations at three speeds) was first fit globally to an equation describing the sedimentation of an ideal species of molecular weight Mn (Eq. 1) using Heteroanalysis software v1.1.19:
where C represents the concentration of the sedimenting species at distances r and r0 cm from the center of rotation; ν (nu) is the partial specific volume of the sedimenting species in cc/g; ρ (rho) is the density of the supporting buffer in g/cc; ω (omega) is the angular velocity of the rotor (radians/s); Mn is the “molar” molecular weight of sedimenting species (g/mol); R is the universal gas constant (8.315×10^7 ergs K^−1 mol^−1) and T is the temperature in degrees Kelvin.
In order to quantify this self-association, the data for each peptide was next fit globally to a monomer-n-mer equilibrium model using Eq. 2:
where n is the stoichiometry of the self-associated complex. Errors were calculated for n and lnKA using f-statistics to two standard deviations.
Samples were prepared in PBS buffer and centrifuged at speeds of 42,000 (41), 50,000 (42), or 60,000 RPM (43) at 25° C. Experimental data are shown as points; lines indicate the best fit to a monomer-n-mer model described by Eq. 2.

[9] = pH- and temperature-dependent; read-out: equilibrium dissociation constant (Kd) of the aPP dimer; cited from earlier work

Q: Which results are given for `CC(C)C[C@H](NC(=O)[C@@H]1CCCN1C(=O)[C@@H]1CCCN1C(=O)[C@H](C)NC(=O)CNC(=O)CNC(=O)[C@@H](N)CSCC(=O)Nc1ccc2c(c1)C(=O)OC21c2ccc(O)cc2Oc2cc(O)ccc21)C(=O)N1CCC[C@H]1C(=O)N1CCC[C@H]1C(=O)N[C@@H](CCCNC(=N)N)C(=O)N[C@@H](CC(N)=O)C(=O)N[C@@H](CCCNC(=N)N)C(=O)N1CCC[C@H]1C(=O)N[C@@H](CCCNC(=N)N)C(N)=O` [^Flu1]?
A: Kd [1]: 1.5 ± 0.1 µM; Kd [2]: 1.4 ± 0.2 µM; Kd [3]: 1.6 ± 0.2 µM; Kd [4]: 2 ± 0.3 µM; Kd [5]: > 20 µM; Kd (c-Src SH3^P133L): > 100 µM

Q: What does the source list for “GPSQPTAPGDDASPEDLIRFYDNLQQYLNVVTRHRY [aPP^Y7AP13SV14P]”?
A: n (monomer-n-mer fit, Eq. 2) ([6]; 5° C.): 2.5; % monomer ([6]; 5° C.): 74%; ln KA (m) ([6]; 5° C.): 25.7 (25.3, 26.0); % monomer ([6]; 10° C.): 82%; ln KA (m) ([6]; 10° C.): 25.3 (25.0, 25.5); % monomer ([6]; 15° C.): 84%; ln KA (m) ([6]; 15° C.): 25.6 (25.4, 25.8); % monomer ([6]; 20° C.): 90%; ln KA (m) ([6]; 20° C.): 25.0 (24.8, 25.2); KD (tetramer, monomer/dimer/tetramer model) ([6]; 25° C.): 6.8×10^−12 M^3; % dimer ([6]; 25° C., at 30 micromolar): 9%; % tetramer ([6]; 25° C., at 30 micromolar): 1%; % monomer ([6]; 25° C.): 90%; ln KA (m) ([6]; 25° C.): 25.7 (25.4, 26.0); n (monomer-n-mer fit, Eq. 2) ([6]; 30° C.): 3.6; % monomer ([6]; 30° C.): 98%; ln KA (m) ([6]; 30° C.): 24.4 (24.2, 24.5); CD ellipticity at 222 nm ([7]; Tris buffer pH 8.0, 25° C.): -9700 deg cm^2 dmol^−1; Tm (cooperative unfolding transition) ([7]; temperature-dependent CD at 222 nm): 20 °C

Q: Which results are given for “avian pancreatic polypeptide (GPSQPTYPGDDAPVEDLIRFYDNLQQYLNVVTRHRY; ends and bridges not checked) [aPP, purchased from American Peptide Company, reference compound]”?
A: % monomer at 30 μM ([8]; 30 μM peptide, 25° C.): 23%; % in the dimer state at 30 micromolar ([8]; 30 micromolar): > 94%; lnKA when n = 2 ([8]; monomer-dimer, 25° C.): when n = 2 12.41; n (stoichiometry of the self-associated complex) ([8]; monomer-n-mer fit, 25° C.): 1.92; Kd (self-association, dimer) ([8]; n = 2, 25° C., calculated from ln KA): 4.1 µM; Kd [9]: 0.0004 to 5 µM
